Measurements as given in ChEMBL document CHEMBL1201862, “PubChem BioAssay data set” (2004).
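Each compound was tested at five concentrations against cells in 96-well plates for 48 hours. GI50: concentration for 50% inhibition of growth.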 Calls of active or inactive are those of the source. Cut-off read from the data, not from the text of the source: active = GI50 up to about 1.1 µM and inactive = higher.

Legend:
Experiment in all cases: DTP human tumour cell line panel, 48 h
[1] = test system: 786-0
[2] = test system: A498
[3] = test system: A549
[4] = test system: ACHN
[5] = test system: BT-549
[6] = test system: CAKI-1
[7] = test system: CCRF-CEM
[8] = test system: COLO 205
[9] = test system: DU-145
[10] = test system: EKVX
[11] = test system: HCC 2998
[12] = test system: HCT-116
[13] = test system: HCT-15
[14] = test system: HL-60
[15] = test system: HOP-62
[16] = test system: HOP-92
[17] = test system: HT-29
[18] = test system: Hs-578T
[19] = test system: IGROV-1
[20] = test system: K562
[21] = test system: KM12
[22] = test system: LOX IMVI
[23] = test system: M14
[24] = test system: MCF7
[25] = test system: MDA-MB-231
[26] = test system: MDA-MB-435
[27] = test system: MDA-N
[28] = test system: MOLT-4
[29] = test system: Malme-3M
[30] = test system: NCI-H226
[31] = test system: NCI-H23
[32] = test system: NCI-H460
[33] = test system: NCI-H522
[34] = test system: NCI/ADR-RES
[35] = test system: OVCAR-3
[36] = test system: OVCAR-4
[37] = test system: OVCAR-5
[38] = test system: OVCAR-8
[39] = test system: PC-3
[40] = test system: RPMI-8226
[41] = test system: RXF 393
[42] = test system: SF-268
[43] = test system: SF-295
[44] = test system: SF-539
[45] = test system: SK-MEL-28
[46] = test system: SK-MEL-2
[47] = test system: SK-MEL-5
[48] = test system: SK-OV-3
[49] = test system: SN12C
[50] = test system: SNB-19
[51] = test system: SNB-75
[52] = test system: SR
[53] = test system: SW-620
[54] = test system: T47D
[55] = test system: TK-10
[56] = test system: U-251
[57] = test system: UACC-257
[58] = test system: UACC-62
[59] = test system: UO-31

Compound: COc1c2c(cc3c1C1(O)Cc4ccc5c(c4C[N+]1(C)CC3)OCO5)OCO2 (configuration not stated)
- GI50 [1]: > 100 µM (inactive)
- GI50 [2]: > 100 µM (inactive)
- GI50 [3]: > 100 µM (inactive)
- GI50 [4]: > 100 µM (inactive)
- GI50 [5]: > 100 µM (inactive)
- GI50 [6]: > 100 µM (inactive)
- GI50 [7]: 82.8 µM (inactive)
- GI50 [8]: 58.5 µM (inactive)
- GI50 [9]: > 100 µM (inactive)
- GI50 [10]: 87.3 µM (inactive)
- GI50 [11]: 33 µM (inactive)
- GI50 [12]: 35.1 µM (inactive)
- GI50 [13]: > 100 µM
- GI50 [14]: 42.7 µM (inactive)
- GI50 [15]: > 100 µM (inactive)
- GI50 [16]: > 100 µM (inactive)
- GI50 [17]: 33.9 µM (inactive)
- GI50 [18]: > 100 µM (inactive)
- GI50 [19]: > 100 µM (inactive)
- GI50 [20]: 37.3 µM (inactive)
- GI50 [21]: > 100 µM (inactive)
- GI50 [22]: 62.1 µM (inactive)
- GI50 [23]: > 100 µM (inactive)
- GI50 [24]: > 100 µM (inactive)
- GI50 [25]: > 100 µM (inactive)
- GI50 [26]: > 100 µM (inactive)
- GI50 [27]: > 100 µM (inactive)
- GI50 [28]: 50.8 µM (inactive)
- GI50 [29]: > 100 µM (inactive)
- GI50 [30]: > 100 µM (inactive)
- GI50 [31]: > 100 µM (inactive)
- GI50 [32]: 88.1 µM (inactive)
- GI50 [33]: 72.9 µM (inactive)
- GI50 [34]: > 100 µM (inactive)
- GI50 [35]: > 100 µM (inactive)
- GI50 [36]: > 100 µM (inactive)
- GI50 [37]: > 100 µM (inactive)
- GI50 [38]: > 100 µM (inactive)
- GI50 [39]: 73.5 µM (inactive)
- GI50 [40]: 85.3 µM (inactive)
- GI50 [41]: 43.9 µM (inactive)
- GI50 [42]: > 100 µM (inactive)
- GI50 [43]: > 100 µM (inactive)
- GI50 [44]: > 100 µM (inactive)
- GI50 [45]: > 100 µM (inactive)
- GI50 [46]: > 100 µM (inactive)
- GI50 [47]: > 100 µM (inactive)
- GI50 [48]: > 100 µM (inactive)
- GI50 [49]: > 100 µM (inactive)
- GI50 [50]: > 100 µM (inactive)
- GI50 [51]: > 100 µM (inactive)
- GI50 [52]: 77.8 µM (inactive)
- GI50 [53]: > 100 µM (inactive)
- GI50 [54]: > 100 µM (inactive)
- GI50 [55]: > 100 µM (inactive)
- GI50 [56]: > 100 µM (inactive)
- GI50 [57]: > 100 µM (inactive)
- GI50 [58]: > 100 µM (inactive)

Compound: [O-][n+]1ccc(NO)c2ccccc21
- GI50 [1]: 2.05 µM (inactive)
- GI50 [2]: 0.673 µM (active)
- GI50 [3]: 1.6 µM (inactive)
- GI50 [4]: 0.796 µM (active)
- GI50 [5]: 0.689 µM (active)
- GI50 [6]: 1.16 µM (inactive)
- GI50 [7]: 0.492 µM (active)
- GI50 [8]: 1.41 µM (inactive)
- GI50 [9]: 1.5 µM (inactive)
- GI50 [10]: 2.21 µM (inactive)
- GI50 [11]: 0.253 µM (active)
- GI50 [12]: 2.03 µM (inactive)
- GI50 [13]: 1.75 µM
- GI50 [14]: 0.923 µM (active)
- GI50 [15]: 1.79 µM (inactive)
- GI50 [16]: 2.07 µM (inactive)
- GI50 [17]: 1.19 µM (inactive)
- GI50 [18]: 2.09 µM (inactive)
- GI50 [19]: 1.65 µM (inactive)
- GI50 [20]: 2 µM (inactive)
- GI50 [21]: 0.984 µM (active)
- GI50 [22]: 1.45 µM (inactive)
- GI50 [23]: 1.93 µM (inactive)
- GI50 [24]: 0.883 µM (active)
- GI50 [25]: 1.32 µM (inactive)
- GI50 [26]: 4.6 µM (inactive)
- GI50 [27]: 4.72 µM (inactive)
- GI50 [28]: 0.6 µM (active)
- GI50 [29]: 6.5 µM (inactive)
- GI50 [30]: 1.87 µM (inactive)
- GI50 [31]: 1.58 µM (inactive)
- GI50 [32]: 0.295 µM (active)
- GI50 [33]: 1.51 µM (inactive)
- GI50 [34]: 1.54 µM (inactive)
- GI50 [35]: 2.3 µM (inactive)
- GI50 [36]: 1.9 µM (inactive)
- GI50 [37]: 3.73 µM (inactive)
- GI50 [38]: 0.561 µM (active)
- GI50 [39]: 1.51 µM (inactive)
- GI50 [40]: 0.297 µM (active)
- GI50 [41]: 0.592 µM (active)
- GI50 [42]: 0.565 µM (active)
- GI50 [43]: 0.374 µM (active)
- GI50 [44]: 0.679 µM (active)
- GI50 [45]: 1.3 µM (inactive)
- GI50 [46]: 1.77 µM (inactive)
- GI50 [47]: 1.25 µM (inactive)
- GI50 [48]: 0.518 µM (active)
- GI50 [49]: 1.38 µM (inactive)
- GI50 [50]: 2.34 µM (inactive)
- GI50 [51]: 0.516 µM (active)
- GI50 [52]: 0.106 µM (active)
- GI50 [53]: 1.56 µM (inactive)
- GI50 [54]: 1.67 µM (inactive)
- GI50 [55]: 2.02 µM (inactive)
- GI50 [56]: 0.658 µM (active)
- GI50 [57]: 7.36 µM (inactive)
- GI50 [58]: 1.22 µM (inactive)
- GI50 [59]: 1.75 µM (inactive)
